Source: ChEMBL document CHEMBL1128062, “Tricyclic -lactams: total synthesis and antibacterial activity of 5- and 5-methoxy-tribactams” (1995)

Columns and labels:
Type in all cases: functional
[1] = tested on: Haemophilus influenzae; assay: Antibacterial activity against Haemophilus influenzae 49247
[2] = tested on: Staphylococcus aureus; assay: Antibacterial activity against penicillin sensitive Staphylococcus aureus 663E
[3] = tested on: Enterococcus faecalis; assay: Antibacterial activity against Enterococcus faecalis 850
[4] = tested on: Pseudomonas aeruginosa; assay: Antibacterial activity against Pseudomonas aeruginosa 2032E WT
[5] = tested on: Pseudomonas aeruginosa; assay: Antibacterial activity against Pseudomonas aeruginosa 1911E
[6] = tested on: Bacteroides fragilis; assay: Antibacterial activity against Bacteroides fragilis 2017E
[7] = tested on: Staphylococcus aureus; assay: Antibacterial activity against methicillin resistant Staphylococcus aureus 1131
[8] = tested on: Staphylococcus aureus; assay: Antibacterial activity against methicillin resistant Staphylococcus aureus COL
[9] = tested on: Staphylococcus aureus; assay: Antibacterial activity against beta-lactamase producing Staphylococcus aureus 853E
[10] = tested on: Escherichia coli; assay: Antibacterial activity against permeable beta-lactamase producing Escherichia coli DC2 TEML
[11] = tested on: Clostridium perfringens; assay: Antibacterial activity against Clostridium perfringens 615E
[12] = tested on: Pseudomonas aeruginosa; assay: Antibacterial activity against permeable mutant Pseudomonas aeruginosa 2033E
[13] = tested on: Proteus mirabilis; assay: Antibacterial activity against permeable beta-lactamase producing Proteus mirabilis 355
[14] = tested on: Escherichia coli; assay: Antibacterial activity against wild Escherichia coli DC0
[15] = tested on: Escherichia coli; assay: Antibacterial activity against permeable Escherichia coli DC2
[16] = tested on: Enterobacter cloacae; assay: Antibacterial activity against permeable beta-lactamase producing Enterobacter cloacae 3647

Row | Compound | MIC [1] [µg/mL] | MIC [2] [µg/mL] | MIC [3] [µg/mL] | MIC [4] [µg/mL] | MIC [5] [µg/mL] | MIC [6] [µg/mL] | MIC [7] [µg/mL] | MIC [8] [µg/mL] | MIC [9] [µg/mL] | MIC [10] [µg/mL] | MIC [11] [µg/mL] | MIC [12] [µg/mL] | MIC [13] [µg/mL] | MIC [14] [µg/mL] | MIC [15] [µg/mL] | MIC [16] [µg/mL]
1 | CC1(C)CCC2(C)CCC(C)(C)NC2=N1.CO[C@@H]1CC[C@H]2C(=C(C(=O)O)N3C(=O)[C@H]([C@@H](C)O)[C@@H]23)C1 | 16 | 1 | > 32 | > 32 | > 32 | 32 | > 32 | > 32 | 1 | 1 | 8 | 16 | 32 | 16 | 0.5 | 16
2 | CC1(C)CCC2(C)CCC(C)(C)NC2=N1.CO[C@H]1CC[C@H]2C(=C(C(=O)O)N3C(=O)[C@H]([C@@H](C)O)[C@@H]23)C1 | 0.5 | 0.25 | 4 | > 32 | > 32 | 1 | 32 | > 32 | 0.5 | 1 | 0.5 | 1 | 4 | 1 | 1 | 1
3 | C[C@@H](O)[C@H]1C(=O)N2C(C(=O)O)=C(SCCNC=N)C[C@H]12.O [IMIPENEM] | 1 | 0.13 | 1 | 4 | 4 | 0.13 | 4 | > 32 | 0.13 | 0.5 | 0.06 | 0.5 | 1 | 0.5 | 0.5 | 2
